Read-outs that look alike come from different tables or passages of the source.
Tests used:
Assay in all cases: MIC, sole activity (no second agent)
Type in all cases: cell-based
Acinetobacter baumannii = settings: for MIC: Acinetobacter baumannii, NCTC13424; for MIC A. baumannii ATCC BAA-747 / MIC A. baumannii NCTC 13424: Table 6A, no second agent, different supplier of Cation-adjusted MHB
Protocol: (§1) To evaluate the potency and spectrum of the compounds both alone and in combination with another agent, susceptibility testing was performed against up to four strains of each of the four Gram negative pathogens, Escherichia coli, Pseudomonas aeruginosa, Klebsiella pneumoniae and Acinetobacter baumannii.
(§2) The inoculum was prepared by making a direct suspension of isolated colonies (selected from an 18-24 hour Mueller-Hinton agar plate) adjusted to the 0.5 McFarland standard.
(§3) The assays were performed in duplicate.
(§4) In cases where the duplicate values varied by less than 2-fold, the lower of the two values is reported. If a variation of greater than 2-fold was observed, the assay was considered non-valid. Several of the compounds were subjected to multiple tests, and where this is the case, the MIC reflects the modal value obtained.
(§5) MICs were determined as described herein, except that a different supplier of Cation-adjusted MHB was used. […] Values are reported relative to Polymyxin B.

Escherichia coli = settings: for MIC: Escherichia coli; for MIC E. coli ATCC25922 / MIC E. coli NCTC 13441: Table 6A, no second agent, different supplier of Cation-adjusted MHB
Protocol: as §1, §2, §3, §4, §5

Klebsiella pneumoniae = settings: for MIC: Klebsiella pneumoniae; for MIC K. pneumoniae ATCC 4352 / MIC K. pneumoniae ATCC BAA-2146: Table 6A, no second agent, different supplier of Cation-adjusted MHB
Protocol: as §1, §2, §3, §4, §5

Pseudomonas aeruginosa = settings: for MIC: Pseudomonas aeruginosa; for MIC P. aeruginosa ATCC 27853 / MIC P. aeruginosa CCUG 59347: Table 6A, no second agent, different supplier of Cation-adjusted MHB
Protocol: as §1, §2, §3, §4, §5

Row | Compound | MIC A. baumannii ATCC BAA-747 (Acinetobacter baumannii) [micrograms/mL] | MIC A. baumannii NCTC 13424 (Acinetobacter baumannii) [micrograms/mL] | MIC E. coli ATCC25922 (Escherichia coli) [micrograms/mL] | MIC E. coli NCTC 13441 (Escherichia coli) [micrograms/mL] | MIC K. pneumoniae ATCC 4352 (Klebsiella pneumoniae) [micrograms/mL] | MIC K. pneumoniae ATCC BAA-2146 (Klebsiella pneumoniae) [micrograms/mL] | MIC P. aeruginosa ATCC 27853 (Pseudomonas aeruginosa) [micrograms/mL] | MIC P. aeruginosa CCUG 59347 (Pseudomonas aeruginosa) [micrograms/mL] | further results
1 | O=C(O)c1cn(C2CC2)c2cc(N3CCNCC3)c(F)cc2c1=O [Ciprofloxacin, reference compound] |  |  |  |  |  |  |  |  | MIC (Acinetobacter baumannii; Second Agent none (Table 7B, by row order), read-out: MIC A. baumannii (NCTC 13424)): 1 µg/mL; MIC (Escherichia coli; ATCC25922, Second Agent none (Table 7B), read-out: MIC E. coli ATCC25922): ≤ 0.06 µg/mL; MIC (Escherichia coli; CCUG59342, Second Agent none (Table 7B), read-out: MIC E. coli CCUG 59342): 16 µg/mL; MIC (Escherichia coli; NCTC9001, Second Agent none (Table 7B), read-out: MIC E. coli (NCTC9001)): ≤ 0.06 µg/mL; MIC (Klebsiella pneumoniae; ATCC4352, Second Agent none (Table 7B, by row order), read-out: MIC K. pneumoniae (ATCC4352)): ≤ 0.06 µg/mL; MIC (Klebsiella pneumoniae; ATCCBAA1706, Second Agent none (Table 7B, by row order), read-out: MIC K. pneumoniae ATCC BAA-1706): 4 µg/mL; MIC (Klebsiella pneumoniae; CCUG59348, Second Agent none (Table 7B), read-out: MIC K. pneumoniae CCUG 59348): > 32 µg/mL; MIC (Klebsiella pneumoniae; NCTC13442, Second Agent none (Table 7B), read-out: MIC K. pneumoniae NCTC 13442): 2 µg/mL; MIC (Pseudomonas aeruginosa; ATCC27853, Second Agent none (Table 7B, by row order), read-out: MIC P. aeruginosa ATCC 27853): 0.125 µg/mL; MIC (Pseudomonas aeruginosa; CCUG59626, Second Agent none (Table 7B, by row order), read-out: MIC P. aeruginosa CCUG 59626): 0.5 µg/mL
2 | CO[C@@H]1[C@@H](OC(N)=O)[C@@H](O)[C@H](Oc2ccc3c(O)c(NC(=O)c4ccc(O)c(CC=C(C)C)c4)c(=O)oc3c2C)OC1(C)C [Novobiocin, reference compound] |  |  |  |  |  |  |  |  | MIC (Acinetobacter baumannii; Table 7H, A. baumannii NCTC 13424, second agent none): 4 µg/mL; MIC (Escherichia coli; NCTC13441, Table 7H, E. coli NCTC 13441, second agent none, read-out: MIC E. coli NCTC 13441): > 32 µg/mL; MIC (Escherichia coli; Table 7H, E. coli ATCC25922, second agent none, read-out: MIC E. coli ATCC25922): 16 µg/mL; MIC (Klebsiella pneumoniae; CCUG59349, Table 7H, K. pneumoniae CCUG 59349, second agent none, read-out: MIC K. pneumoniae CCUG 59349): > 32 µg/mL; MIC (Klebsiella pneumoniae; Table 7H, K. pneumoniae ATCC4352, second agent none, read-out: MIC K. pneumoniae ATCC4352): 0.25 µg/mL; MIC (Pseudomonas aeruginosa; ATCC10145, Table 7H, P. aeruginosa ATCC 10145, second agent none, read-out: MIC P. aeruginosa ATCC 10145): > 32 µg/mL
3 | (1- aminomethylcyclohexane) carbonyl polymyxin B nonapeptide [Example A34] | >8 | >8 | 8 | >8 | 8 | >8 | 0.5 | 2 | 
4 | (2S)-2-Amino-3- cyclohexanepropanoyl polymyxin B nonapeptide [Example A16] | >8 | >8 | >8 | >8 | >8 | >8 | 1 | >8 | 
5 | (2S)-Morpholine-2-carbonyl polymyxin B nonapeptide [Example A40] | >8 | >8 | 8 | 4 | 4 | 8 | 2 | 4 | 
6 | (2S)-piperazine-2-carbonyl polymyxin B nonapeptide [Example A49] | >8 | >8 | 4 | 4 | 2 | >8 | 2 | 4 | 
7 | (2S,3S)-3-Amino-2-hydroxy- 5-methylhexanoyl polymyxin B decapeptide [Example A18] | 4 | 8 | 8 | 4 | 4 | 4 | 0.5 | 1 | 
8 | (2S,4R)-4-amino-1-(3-amino- 3-cyclohexylpropanoyl)pyrrolidine- 2-carbonyl polymyxin B nonapeptide [Example A29] | 2 | 4 | >8 | >8 | >8 | >8 | 0.25 | >8 | 
9 | (R)-4-isobutylpiperazine-2- carbonyl polymyxin B nonapeptide [Example A46] | 8 | 2 | 2 | 2 | 2 | 2 | 1 | 2 | 
10 | (R)-Piperidine-3-carbonyl polymyxin B nonapeptide [Example A24] | >8 | >8 | >8 | >8 | 8 | >8 | 1 | 2 | 
11 | (S)-1-(2-methylpropyl)- piperidine-3-carbonyl polymyxin B nonapeptide [Example A48] | 4 | 2 | 1 | 1 | 0.5 | 2 | 1 | 4 | 
12 | (S)-1-(3-methylbutanoyl) piperazine-2-carbonyl polymyxin B nonapeptide [Example A47] | 8 | 4 | >8 | 8 | >8 | 8 | 2 | 8 | 
13 | Cis-4-Octyl piperidine-2- carbonyl polymyxin B nonapeptide. Isomer 1 [Example A43] | >8 | >8 | 8 | >8 | >8 |  | 4 | 8 | 
14 | Cis-4-Octyl piperidine-2- carbonyl polymyxin B nonapeptide. Isomer 2 [Example A44] | 2 | 4 | 2 | 2 | 2 |  | 1 | 2 | 
15 | D-Leu-polymyxin B nonapeptide [Example A42] | 4 | 4 | 2 | 1 | 2 | 1 | 0.5 | 2 | 
16 | D-Phe polymyxin B nonapeptide [Example A35] | 8 | 8 | 1 | 2 | 2 | 2 | 0.25 | 1 | 
17 | D-Pro polymyxin B nonapeptide [Example A36] | 8 | 8 | 2 | 2 | 1 | 8 | 1 | 4 | 
